Laboratory results reported in patent publication US20260294769A1, “ASCORBIC ACID DERIVATIVES AND COSMETIC THEREOF” (SEIWA KASEI COMPANY, LIMITED, priority 2023, published 2026).
Read-outs that look alike come from different tables or passages of the source.

Key:
[1] = system: Normal human dermal fibroblasts (NHDF); test: Hyaluronic acid production promoting effect (ELISA of hyaluronic acid in supernatant); format: cell-based; conditions: 10 mM or less, 48 hours, control group set to 100%, N=3
Description: Normal human dermal fibroblasts (NHDF) were prepared in D-MEM containing 5% (v/v) fetal bovine serum to a cell density of 2.5×10^4 cells/well, and then pre-incubated on a 96-well plate for 24 hours. After removing the medium, samples prepared in serum-free D-MEM were added to each well and cultured for 48 hours. After the culture was completed, the amount of hyaluronic acid in the supernatant was quantified by ELISA. Measurements were performed in triplicate (N=3).
The amount of hyaluronic acid produced when the sample was measured at a concentration of 10 mM or less was compared with that of the control group, and the results (% values when the control group is set to 100%) are shown in Tables 18 to 20 based on the following criteria.

[2] = Stability Test-1: residual rate of 1% aqueous solutions stored at 50° C. (HPLC); format: physicochemical; conditions: water, 1% aqueous solution; for remaining at 336 h: after 2 weeks, read-out: Residual Rate; for remaining at 672 h: after 4 weeks
Description: (§1) For each of the samples of Synthesis Examples 1 to 6, 1% aqueous solutions were adjusted to pH 3, 5, 7, 8, and 9 with a dilute potassium hydroxide aqueous solution, and then placed in 50 mL screw tubes and sealed. […] Furthermore, the odor and coloration of the samples adjusted to pH 7 were evaluated based on the following methods and criteria, and the results are shown in Table 11.
• ⊚: 80% or more • ◯: 50% or more, less than 80% • Δ: 30% or more, less than 50% • x: Less than 30%

[3] = Stability Test-1: odor of 1% aqueous solutions adjusted to pH 7 stored at 50° C.; format: physicochemical; conditions: 1% aqueous solution pH 7, 50° C., 10 panelists
Description: as §1
(§2) • Evaluation was made by 10 panelists according to the following criteria. • 3: Almost odorless. • 2: There is a slight strange odor. • 1: A strong odor is detected. • Based on the results of the above evaluation, the following classification was made: • ◯: Total score of 10 panelists is 25 or more • Δ: Total score of 10 panelists is 16-24 • x: The total score of 10 panelists is 15 or less

[4] = system: Normal human dermal fibroblasts; test: Collagen production promoting effect (ELISA of free collagen in supernatant); format: cell-based; conditions: 10 mM or less, 48 hours, control group set to 100%, N=3
Description: Normal human dermal fibroblasts were prepared in D-MEM containing 5% (v/v) fetal bovine serum to a cell density of 2.5×10^4 cells/well, and then pre-incubated for 24 hours on a 96-well plate. After removing the medium, samples prepared to a predetermined concentration in D-MEM containing 5% (v/v) fetal bovine serum were added to each well and cultured for 48 hours. After the culture was completed, the amount of free collagen in the supernatant was quantified by ELISA. Measurements were performed in triplicate (N=3).
The amount of collagen produced when the sample was measured at a concentration of 10 mM or less was compared with that of the control group, and the results (% values when the control group was set to 100%) are shown in Table 17 based on the following criteria.

[5] = Stability Test-1: coloration of 1% aqueous solutions adjusted to pH 7 stored at 50° C.; format: physicochemical; conditions: 1% aqueous solution pH 7, 50° C., 10 panelists
Description: as §1
• Evaluation was made by 10 panelists according to the following criteria. • 3: Almost no change compared to immediately after preparation. • 2: Color changes compared to immediately after preparation. • 1: Strongly colored compared to immediately after preparation. • Based on the results of the above evaluation, the following classification was made: […]

[6] = Stability Test-2: odor of cream stored at 50° C.; format: physicochemical; conditions: 10 panelists
Text: as §2
(§3) For each of the samples of Synthesis Examples 9 to 32, (a) and (b) shown in Table 12 were each heated and mixed. After cooling, (c) shown in Table 12 was added to prepare a cream with a pH of 7 or 9. […] The odor and coloration were also evaluated according to the same method and criteria as in Test Example 1. The results regarding the residual rate are shown in Tables 13 and 14, and the results regarding the odor and coloration are shown in Tables 15 and 16.

[7] = Stability Test-2: residual rate in cream of pH 7 or 9 stored at 50° C.; format: physicochemical
Description: as §3

[8] = Stability Test-2: coloration of cream stored at 50° C.; format: physicochemical; conditions: 10 panelists
Text: • Evaluation was made by 10 panelists according to the following criteria. • 3: Almost no change compared to immediately after preparation. • 2: Color changes compared to immediately after preparation. • 1: Strongly colored compared to immediately after preparation. • Based on the results of the above evaluation, the following classification was made:
as §3

[9] = cream pH 7, 50° C., after 2 weeks, 20160 min
[10] = cream pH 7, 50° C., after 4 weeks, 40320 min
[11] = cream pH 9, 50° C., after 2 weeks, 20160 min
[12] = cream pH 9, 50° C., after 4 weeks, 40320 min

Structure (SMILES) | Hyaluronic acid production-promoting effect [1] | remaining at 336 h ([2]; pH 3, 50° C.) [%] | remaining at 672 h ([2]; pH 3, 50° C.) [%] | remaining at 336 h ([2]; pH 5, 50° C.) [%] | remaining at 672 h ([2]; pH 5, 50° C.) [%] | remaining at 336 h ([2]; pH 7, 50° C.) [%] | remaining at 672 h ([2]; pH 7, 50° C.) [%] | remaining at 336 h ([2]; pH 8, 50° C.) [%] | remaining at 672 h ([2]; pH 8, 50° C.) [%] | remaining at 336 h ([2]; pH 9, 50° C.) [%] | remaining at 672 h ([2]; pH 9, 50° C.) [%] | Collagen production-promoting effect [4] | Odor ([6]; after 2 weeks) | Odor ([6]; after 4 weeks) | Residual Rate [7, 9] | Residual Rate [7, 10] | Residual Rate [7, 11] | Residual Rate [7, 12] | Coloration ([8]; after 2 weeks) | Coloration ([8]; after 4 weeks) | other results
O=C1OC(C(O)CO)C2=C1OCCCO2 (stereo not drawn) [Synthesis Example 2, 2,3-O-(1,3-propanediyl) ascorbic acid] | ++ (120%<) | ≥ 80 | ≥ 80 | ≥ 80 | ≥ 80 | ≥ 80 | ≥ 80 | ≥ 80 | 50 to 80 | 50 to 80 | 30 to 50 | ++ (140%<) |  |  |  |  |  |  |  |  | Odor ([3]; after 2 weeks): ∘ (Total score of 10 panelists is 25 or more); Odor ([3]; after 4 weeks): Δ (Total score of 10 panelists is 16-24); Coloration ([5]; after 2 weeks): ∘ (Total score of 10 panelists is 25 or more); Coloration ([5]; after 4 weeks): ∘ (Total score of 10 panelists is 25 or more)
O=C1OC(C(O)CO)C2=C1OCC(O)CO2 (stereo not drawn) [Synthesis Example 4, 2,3-O-(2-hydroxypropane-1,3-diyl) ascorbic acid] | ++ (120%<) | ≥ 80 | ≥ 80 | ≥ 80 | ≥ 80 | 50 to 80 | 50 to 80 | 50 to 80 | 30 to 50 | 50 to 80 | 30 to 50 |  |  |  |  |  |  |  |  |  | Odor ([3]; after 2 weeks): ∘ (Total score of 10 panelists is 25 or more); Odor ([3]; after 4 weeks): ∘ (Total score of 10 panelists is 25 or more); Coloration ([5]; after 2 weeks): ∘ (Total score of 10 panelists is 25 or more); Coloration ([5]; after 4 weeks): ∘ (Total score of 10 panelists is 25 or more)
O=C1OC(C(O)CO)C2=C1OCC1(COC1)CO2 (stereo not drawn) [Synthesis Example 6, 2,3-O-(3,3-dimethyleneoxetane) ascorbic acid] | ++ (120%<) | ≥ 80 | ≥ 80 | ≥ 80 | ≥ 80 | 50 to 80 | 50 to 80 | 50 to 80 | 30 to 50 | 50 to 80 | 30 to 50 | ++ (140%<) |  |  |  |  |  |  |  |  | Odor ([3]; after 2 weeks): ∘ (Total score of 10 panelists is 25 or more); Odor ([3]; after 4 weeks): ∘ (Total score of 10 panelists is 25 or more); Coloration ([5]; after 2 weeks): ∘ (Total score of 10 panelists is 25 or more); Coloration ([5]; after 4 weeks): ∘ (Total score of 10 panelists is 25 or more)
CCCCCCCC(=O)OCC(OC(=O)CCCCCCC)C1OC(=O)C2=C1OCCCCO2 (stereo not drawn) [Synthesis Example 12, 5,6-O-dioctanoyl-2,3-O-(1,4-butanediyl) ascorbic acid] | ++ (120%<) |  |  |  |  |  |  |  |  |  |  | ++ (140%<) | ◯ (Total score of 10 panelists is 25 or more) | Δ (Total score of 10 panelists is 16-24) | ⊚ (95% or more) | ⊚ (95% or more) | ⊚ (95% or more) | ⊚ (95% or more) | ◯ (Total score of 10 panelists is 25 or more) | ◯ (Total score of 10 panelists is 25 or more) | 
CCCCCCCCCCCCCCCC(=O)OCC(O)C1OC(=O)C2=C1OCCCCO2 (stereo not drawn) [Synthesis Example 15, 6-O-palmitoyl-2,3-O-(1,4-butanediyl) ascorbic acid] | ++ (120%<) |  |  |  |  |  |  |  |  |  |  | ++ (140%<) | ◯ (Total score of 10 panelists is 25 or more) | Δ (Total score of 10 panelists is 16-24) | ⊚ (95% or more) | ⊚ (95% or more) | ⊚ (95% or more) | ⊚ (95% or more) | ◯ (Total score of 10 panelists is 25 or more) | ◯ (Total score of 10 panelists is 25 or more) | 
CCCC(=O)OCC(OC(=O)CCC)C1OC(=O)C2=C1OCCCO2 (stereo not drawn) [Synthesis Example 21, 5,6-O-dibutanoyl-2,3-O-(1,3-propanediyl) ascorbic acid] | ++ (120%<) |  |  |  |  |  |  |  |  |  |  | ++ (140%<) | ◯ (Total score of 10 panelists is 25 or more) | Δ (Total score of 10 panelists is 16-24) | ⊚ (95% or more) | ⊚ (95% or more) | ⊚ (95% or more) | ⊚ (95% or more) | ◯ (Total score of 10 panelists is 25 or more) | ◯ (Total score of 10 panelists is 25 or more) | 
CCCCCCCCCCCCCCCC(=O)OCC(OC(=O)CCCCCCCCCCCCCCC)C1OC(=O)C2=C1OCCCO2 (stereo not drawn) [Synthesis Example 27, 5,6-O-dipalmitoyl-2,3-O-(1,3-propanediyl) ascorbic acid] | ++ (120%<) |  |  |  |  |  |  |  |  |  |  | ++ (140%<) | ◯ (Total score of 10 panelists is 25 or more) | Δ (Total score of 10 panelists is 16-24) | ⊚ (95% or more) | ⊚ (95% or more) | ⊚ (95% or more) | ⊚ (95% or more) | ◯ (Total score of 10 panelists is 25 or more) | Δ (Total score of 10 panelists is 16-24) | 
CC(C)CCCCCCCCCCCCCCC(=O)OCC(OC(=O)CCCCCCCCCCCCCCC(C)C)C1OC(=O)C2=C1OCCCO2 (stereo not drawn) [Synthesis Example 29, 5,6-O-diisostearoyl-2,3-O-(1,3-propanediyl) ascorbic acid] |  |  |  |  |  |  |  |  |  |  |  | ++ (140%<) | ◯ (Total score of 10 panelists is 25 or more) | Δ (Total score of 10 panelists is 16-24) | ⊚ (95% or more) | ⊚ (95% or more) | ⊚ (95% or more) | ⊚ (95% or more) | ◯ (Total score of 10 panelists is 25 or more) | ◯ (Total score of 10 panelists is 25 or more) | 
